The subject of this experiment is gastric cancer cell line TSGH-9201. Description: In vitro survival assay (MTT) for anti-gastric cancer effects. Particulars: Homo sapiens, TSGH-9201 cells, 48 hours treatment, read-out: IC50 (half inhibition concentration), survival of gastric cancer cells. The format is cell-based. On the procedure: Inhibiting effects of gastric cancer cells by cyclohexenone compounds of Antrodia camphorata from example 1 were assessed according to the anticancer-drug screening model of National Cancer Institute (NCI). The compound 4-hydroxy-2,3-dimethoxy-6-methyl-5-(3,7,11-trimethyl-dodeca-2,6,10-trienyl)-cyclohex-2-enone from example 1 was added into the culture media of gastric cancer cell line TSGH-9201 to determine the survival rates. Survival of cell was analyzed using MTT assay. TSGH-9201 cell line was a human gastric carcinoma cell line.
MTT assay is commonly used to analyze cell proliferation, survival rate of viable cells and cytotoxicity. MTT (3[4,5-dimethylthiazol-2-yl]-2,5-diphenyltetrazolium bromide) is a yellow dye which can be converted to water-insoluble purple formazan on the reductive cleavage of its tetrazolium ring by the succinate tetrazolium reductase in mitochondria of cells. The amount of formazan produced is used to detect the number of viable cells and calculate the survival rates.
The TSGH-9201 cells were cultivated in DMEM medium supplemented with 10% fetal bovine serum, 100 U/ml of Penicillin and 100 μg/ml of Streptomycin at 37° C., 5% CO2 for 24 hours. Proliferated cells were washed once with PBS, treated with 1× trypsin-EDTA, and centrifuged at 1200 rpm for 5 min. […] The absorbances were measured at 570 nm with an ELISA Reader to determine the survival rates.

IC50 data for one compound are collected here from patent publication US20110060056A1, “Inhibition of the Survival of Gastric Cancer by Cyclohexenone Compounds from Antrodia Camphorata” (GOLDEN BIOTECHNOLOGY CORPORATION, priority 2009, published 2011).

Consider `COC1=C(OC)C(O)C(C/C=C(\C)CC/C=C(\C)CCC=C(C)C)C(C)C1=O` (stereo not shown) [formula 2, 4-hydroxy-2,3-dimethoxy-6-methyl-5-(3,7,11-trimethyl-dodeca-2,6,10-trienyl)-cyclohex-2-enone], for which the IC50 was determined as 1.32 mg/L.
